This note sets out measurements from US6432433B1, “Liquid biocidal composition of a formaldehyde adduct and an isothiazolone and method of use” (ISP Investments Inc., priority 2000, dated 2002).

Each structure is given as a SMILES string. Where “and” joins values, the source holds several entries; their conditions need not be identical. Identical values can stand only once. Like-named read-outs stand apart in the source and are kept apart here.

What all share (assay type): cell-based
Experiment [1] has as its system Staphylococcus aureus (ATCC 6538). In words: MIC on Tryptic Soy Agar. Conditions: S. aureus; TSA, 32° C., 48 hours. The protocol:
(§1) The agar was inoculated to contain about 1×10^6 CFU/ml bacterial cells or fungal spores.
(§2) The MIC were taken as end points of activity. End points for the mixture of NMPFA (DMO, MBO or HMAE) and BIT were then compared with the end points for the pure active compound when employed individually.
(§3) Synergism was determined by a commonly used method described by Kull, A. C., Eisman, P. C, Sylwestrowicz ,H., D. and Mayer, R. L. (1961). Applied Microbiology, 9:538 using the ratio determined by:
(§4) Qa/QA+Qb/QB=Synergy Index (SI)
(§5) where QA is the concentration of the formaldehyde adduct in parts per million (ppm), acting alone, which produced an end point. Qa is the concentration of the formaldehyde adduct in ppm, in the mixture, which produced an end point. QB is the concentration of BIT in ppm, acting alone, which produced an end point and Qb is the concentration of BIT in ppm, in the mixture, which produced an end point.
(§6) When the sum of Qa/QA+Qb/QB is greater than one, antagonism is indicated. When the sum is equal to one, additivity is indicated.

The subject of experiment [2] is Bacillus subtilis (ATCC 27328). In words: MIC on Tryptic Soy Agar. Conditions: for MIC: Bacillus subtilis, read-out: MIC end point, compound alone (QA / QB). The protocol:
as §1, §2, §3, §4, §5, §6

Experiment [3] has as its system Enterobacter cloacae (ATCC 13047). Kind of experiment: MIC on Tryptic Soy Agar. The following applies: E. cloacae; TSA, 32° C., 48 hours. The protocol: as §1, §2, §3, §4, §5, §6
Experiment [4] concerns Escherichia coli (ATCC 11229). In words: MIC on Tryptic Soy Agar. Conditions: E. coli; TSA, 32° C., 48 hours. The protocol: as §1, §2, §3, §4, §5, §6
Experiment [5] relates to Pseudomonas aeruginosa (ATCC 10145). In words: MIC on Tryptic Soy Agar. The following applies: P. aeruginosa; TSA, 32° C., 48 hours. As for the experimental part: as §1, §2, §3, §4, §5, §6
For experiment [6], the system named is Aureobasidium pullulans (ATCC 9348). In words: MIC on Potato Dextrose Agar. Conditions: A. pullulans; PDA, 28°, 7-10 days. As for the experimental part: as §1, §2, §3, §4, §5, §6
Experiment [7] has as its system Penicillium funiculosum (ATCC 11797). In words: MIC on Potato Dextrose Agar. The following applies: P. funiculosum; PDA, 28°, 7-10 days. The protocol:
as §1, §2, §3, §4, §5, §6

The subject of experiment [8] is Gliocladium virens (ATCC 9645). In words: MIC on Potato Dextrose Agar. Conditions: for MIC: Trichoderma virens. The protocol:
as §1, §2, §3, §4, §5, §6

Experiment [9] has as its system Aspergillus niger (ATCC 6275). Kind of experiment: MIC on Potato Dextrose Agar. Conditions: A. niger; PDA, 28°, 7-10 days. The protocol:
as §1, §2, §3, §4, §5, §6

Experiment [10] concerns Chaetomium globosum (ATCC 6205). In words: MIC on Potato Dextrose Agar. The following applies: C. globosum; PDA, 28°, 7-10 days. As for the experimental part:
as §1, §2, §3, §4, §5, §6

Experiment [11] has as its system mixed culture of P. aeruginosa, E. cloacae, B. subtilis, B. megaterium and B. licheniformis. In words: In-can preservation of latex paint (ASTM D2574-97), two challenges. The following applies: polyvinyl acrylic paint, 32° C., mixed inoculum, rechallenged after 7 days. As for the experimental part: The efficacy of each individual compound or their combination was measured in a latex paint artificially contaminated with a mixed inoculum. The microbiological evaluations shown as examples, are based on ASTM D2574-97, “Resistance of emulsion paints in the container to the attack of microorganisms”. Briefly, paint samples (e.g. polyvinyl acrylic, PCL 717) were prepared to contain different concentrations of each compound or their mixtures in different concentrations and ratios. Each paint sample thus prepared was then inoculated with a mixed culture of P. aeruginosa, E. cloacae, B. subtilis, B. megaterium and B. licheniformis (final concentration of about 10^6 CFU/ml) and rechallenged after 7 days (final concentration of about 10^7 CFU/ml). Paint samples were incubated at 32° C. for the duration of the test and sampled for the presence of viable bacteria on TSA plates. A paint sample was considered appropriately preserved if no bacterial growth was detected after six days in both challenge assays. […]
1. The end-point activity in ppm obtained when no viable bacteria was detected after both challenges in a paint sample containing the compound A alone (QA), for compound A in the mixture (Qa), for compound B alone (QB) or for compound B in the mixture (Qb). […]
3. The calculated Synergy Index (SI), as described above

Where [12] appears, read: B. subtilis, TSA, 32° C., 48 hours.

In the case of `O=c1[nH]sc2ccccc12` [BIT, 1,2-benzisothiazolin-3-one, reference compound], the “MIC end point, compound alone (QA / QB)” value is 50 ppm in experiment [1]; 25.0 ppm and 25 ppm in experiment [2] (setting [12]); 2500 ppm in experiment [3]; 50.0 ppm in experiment [4]; 250.0 ppm in experiment [5]; 50 ppm in experiment [6]. Further, the “MIC end point, compound alone (QA / QB)” value in experiment [7] is 25 ppm; in [8] (G. virens, PDA, 28°, 7-10 days), 100 ppm; in [9], 250 ppm; in experiment [10], 250 ppm. Besides, the “End-point activity (no viable bacteria detected after both challenges), compound alone (QA / QB)” value in experiment [11] was 170.0 ppm.
For the molecule `CC1(C)COCN1` [DMO, 4,4-dimethyloxazolidine], the MIC stood at 385 µg/mL in [2] (ATCC27328, B. subtilis, TSA, 32° C., 48 hours) and 770 µg/mL in [8] (ATCC9645, G. virens, PDA, 28°, 7-10 days, read-out: MIC end point, compound alone (QA / QB)).
Regarding `OCCNCO` [HMAE, 2-[(hydroxymethyl)amino]ethanol], the MIC in experiment [2] (ATCC27328, 48 h) was determined as 250 µg/mL; in [8] (ATCC9645, read-out: MIC end point, compound alone (QA / QB)) it was 1000 µg/mL.
In the case of `CC(O)CN(C)CC(C)OCO` (centres unmarked) [NMPFA, N-methyl-2-hydroxymethyleneoxypropyl-2′-hydroxypropylamine], the “MIC end point, compound alone (QA / QB)” value in [1] is recorded as 1,000 ppm; in experiment [2] (setting [12]), 500 ppm; in experiment [3], 1,000 ppm; in experiment [4], 1,000 ppm; in experiment [5], 1,000 ppm; in experiment [6], 500 ppm. Also, the “MIC end point, compound alone (QA / QB)” value in [7] is listed as 250 ppm; in experiment [8] (G. virens, PDA, 28°, 7-10 days), >2,000 ppm; in experiment [9] it was 1,000 ppm; in [10] it was >2,000 ppm. The “End-point activity (no viable bacteria detected after both challenges), compound alone (QA / QB)” value in experiment [11] is recorded as 1,000 ppm.
